The source of these data is patent publication US20120208776A1 (priority 2002, published 2012).

Usually IC50 stands for the concentration needed to halve the response being measured. Usually pIC50 stands for the negative decadic logarithm of the IC50, by convention in mol/L.

A short description of data set [1]: Lipid analysis of rat liver. Format: in vivo, Sprague-Dawley rats. The conditions noted are these: actein 35.7 mg/kg; 24 hours. The protocol:
(§1) Lipid analysis: Hepatic lipids were extracted by homogenization of the liver followed by addition of choloroform:methanol (2:1). After vortex and centrifugation for 10 min, the organic phase was collected and dried under nitrogen. The dried lipids were dissolved in 1% Triton X-100 in water and sonicated. Extracted hepatic lipids and plasma lipids were measured by cholesterol and triglyceride enzymatic assay kits from Infinity (Louisville, Colo.) according to the manufacturer's instruction. Free fatty acids were measured by Enzymatic assay using NEFA C kit from Wako Chemicals (Richmond, Va.). Tissue lipids were normalized by protein concentration.
as §1, with “Hepatic” for “Lipid analysis: Hepatic”, “liver from the 24 h group,” for “liver”, “vortexing” for “vortex”, “Colo.),” for “Colo.)”, “instructions.” for “instruction.”

A short description of data set [2]: Animal wellness, histopathological examination, tolerated dose. The format is in vivo, Sprague-Dawley rats. The conditions noted are these: actein 35.7 mg/kg; 24 hours. The protocol: A sample of each mammary tumor was collected, frozen in liquid nitrogen and kept at −70° C.
Analysis by microscopy: Histopathological examination of H&E and H&E/Oil Red O stained sections of control and treated tissues obtained 6 or 24 hours after treatment were performed. Tissues were embedded in OCT (optimal cutting temperature compound to enable cryosectioning of the sample).
Livers were embedded in OCT (optimal cutting temperature compound to enable cryosectioning of the sample) and stained with haematoxylin and eosin (H and E). All samples were visualized with a Zeiss Axioplan 2 microscope (Carl Zeiss Inc., Thornwood, N.Y.) and images were obtained with a Nikon Coolpix 5000 (Nikon Instruments, Melville, N.Y.) camera.

A further data set has as its system MCF7 cells. The data set is described as follows: Cell proliferation, cell count (Coulter Counter). Format: cell-based, human.
The nature of data set [3]: Pharmacokinetic analysis of actein in serum and urine (HPLC-MS). The format is in vivo. The conditions noted are these: female, Sprague-Dawley, rat, oral, rats, 35.7 mg/kg. The protocol: In this study two groups of 8 female rats were each treated with: 1) 35.7 mg/kg of actein, and 2) 1/5 this dose, 7.14 mg/kg, by gastric intubation. A control group of 8 female rats was treated by gastric intubation with 1 cc of water. Afresh solution of actein, suspended in water, was prepared just before the treatment.
Blood and urine collection: To determine the serum concentration of actein at different times during 24 hours, blood was sequentially collected from 4 animals of the group treated with 35.7 mg/kg actein at intervals of 0, 5, 15, 30, 60 minutes and 2, 4, 6, 8 and 24 hours after the administration of actein. For the 24 hour period, animals were starved with free access to water. Blood samples (0.5 ml) were collected through contusion of the retrobulbar plexus with a siliconated glass Pasteur pipette after anaesthetization with ethyl ether. Immediately after sacrifice, blood was drawn from the portal vein with a sterile syringe into vials without anticlotting agents. Ten minutes after each sampling (the time necessary for the formation of the clot), blood was centrifuged at 1500 g for 10 minutes, then serum was stored in cryogenic screw cap vials at −70° C. […]
HPLC-MS analysis was performed, in duplicate, by Chromadex to determine the presence and quantity of actein in serum and urine samples from Sprague-Dawley rats treated with 35.7 mg/kg actein. […]

In data set [4] the test system is MCF10F normal mammary epithelial cells. The data set is described as follows: Cell proliferation, cell count (Coulter Counter). The format is cell-based, human. The conditions noted are these: 96 h.
Data set [5] concerns cyclin D1 and p21 mRNA in MDA-MB-453 cells. Put plainly: RT-PCR of mRNA. The format is cell-based, human.

pIC50: −log10 of the molar value. Converted amounts (≈) assume the structure as drawn. Read-outs that look alike come from different tables or passages of the source.

As to `CC(=O)O[C@@H]1C[C@@]23C[C@@]24CC[C@H](O[C@@H]2OC[C@@H](O)[C@H](O)[C@H]2O)C(C)(C)[C@@H]4CC[C@H]3[C@]2(C)C[C@@H]3O[C@]4(C[C@@H](C)[C@@H]3[C@@]12C)O[C@H](O)[C@@]1(C)O[C@@H]41` [actein], the “cholesterol level in liver vs controls” value in data set [1] is reported as 0.6 fold. Moreover, the “free fatty acid level in liver vs controls” value in data set [1] is reported as 0.6 fold. The “triglyceride content of liver vs controls” value in data set [1] is “no change”. Moreover, the “liver histology (H&E)” value in data set [2] is “hepatotoxicity”. Moreover, the 50% inhibitory concentration (IC50) was 14 µg/mL in the data set with MCF7 cells (Homo sapiens, MCF7 cells, 96 h, read-out: IC50) and 42 µg/mL (≈ 62.1 µM) in data set [4] (Homo sapiens, MCF-10F, MCF10F cells). In addition, the pIC50 with MCF7 cells (Homo sapiens, MCF7 cells, 96 h, value in parentheses, read-out: IC50) is 4.68. Also, the cells alive in the data set on MCF7 cells (MCF7, 20 μg/ml, 96 h) is 38.0%±3.0; in data set [4] (MCF10F, 20 μg/ml), 63.8%±1.4. For the same compound, the “potency relative to 23-epi-26-deoxyactein or cimifugoside” value in the data set with MCF7 cells (MCF7 growth inhibition) is reported as “approximately 1.5 fold”. The “potency relative to cimiracemoside A” value in the data set with MCF7 cells (MCF7 growth inhibition) was “approximately 3 times”. The concentration at 24 h in data set [3] (serum, 24 hours, read-out: level of actein in serum) is 102 ng/mL; in data set [3] (urine, 24 h, read-out: level of actein in urine), 777 ng/mL. The “p21 mRNA (RT-PCR)” value in data set [5] (3 h, 20 μg/ml) was 0.92 fold; in data set [5] (3 h, 40 μg/ml), 1.03 fold; in data set [5] (10 h, 20 μg/ml), 1.06 fold; in data set [5] (10 h, 40 μg/ml) it was 1.19 fold; in data set [5] (24 h, 20 μg/ml), 0.92 fold; in data set [5] (24 h, 40 μg/ml), 1.46 fold.
